In this assay the target is T1, Pmar-Lig (Prochlorococcus marinus, UniProt A0A0A2ACP7).
T1 construct: gene EU96_0746; codon-optimised synthetic gene in pDEST17; tag removed; three domains (DB, AD, OB); 432 residues modelled in wild-type crystals
Nature of the assay: X-ray crystal structure, […] A. The class given is binding. To be noted: post-step 3 complex with sealed DNA product; partial occupancy (adenine nucleobase 0.75, phosphate 0.5); some residual covalent DNA-adenylate; pH 6.5 crystallisation.

Molecules are shown by their SMILES.

1 compound from PMC6698739, “Structural intermediates of a DNA–ligase complex illuminate the role of the catalytic metal ion and mechanism of phosphodiester bond formation” (Nucleic Acids Research, 2019) can be followed below.

T1 sequence (A0A0A2ACP7 entry or part of it): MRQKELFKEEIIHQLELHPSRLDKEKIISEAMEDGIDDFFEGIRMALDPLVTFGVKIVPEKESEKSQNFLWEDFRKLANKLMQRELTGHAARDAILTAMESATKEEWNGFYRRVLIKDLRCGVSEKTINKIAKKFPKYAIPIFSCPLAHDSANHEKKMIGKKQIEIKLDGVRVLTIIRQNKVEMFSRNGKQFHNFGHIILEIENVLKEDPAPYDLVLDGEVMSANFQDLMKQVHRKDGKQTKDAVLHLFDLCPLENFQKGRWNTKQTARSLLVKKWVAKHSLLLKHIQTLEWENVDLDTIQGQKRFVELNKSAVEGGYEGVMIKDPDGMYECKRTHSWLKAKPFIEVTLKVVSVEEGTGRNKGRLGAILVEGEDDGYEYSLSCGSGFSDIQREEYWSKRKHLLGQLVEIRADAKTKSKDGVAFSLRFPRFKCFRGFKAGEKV

For the compound `Nc1ncnc2c1ncn2[C@@H]1O[C@H](COP(=O)(O)O)[C@@H](O)[C@H]1O` [AMP], the “X-ray crystal structure, 1.99 A” value is “with the DNA product retained in the active site, as well as residual AMP”.
